Assay results from paper PMC3323675 (Biochemistry, 2012).

Assays:
[1] = target: T1, geranyl diphosphate C-methyltransferase (GPPMT) (Streptomyces coelicolor, UniProt Q9F1Y5); assay: X-ray crystal structure, […] Å; type: binding; details: with SAH and Mg2+; monomers A, D, H, J only, partial occupancy
[2] = target: T1, geranyl diphosphate C-methyltransferase (GPPMT); assay: radiometric methyl transfer, pentane extraction, scintillation counting; type: biochemical; details: 10 mM MgCl2, pH 7.0, 30 °C
[3] = target: T1, geranyl diphosphate C-methyltransferase (GPPMT); assay: X-ray crystal structure, […] Å; type: binding; details: with SAH and Mg2+; isoprenoid substrate site

T1 sequence (Q9F1Y5 whole entry): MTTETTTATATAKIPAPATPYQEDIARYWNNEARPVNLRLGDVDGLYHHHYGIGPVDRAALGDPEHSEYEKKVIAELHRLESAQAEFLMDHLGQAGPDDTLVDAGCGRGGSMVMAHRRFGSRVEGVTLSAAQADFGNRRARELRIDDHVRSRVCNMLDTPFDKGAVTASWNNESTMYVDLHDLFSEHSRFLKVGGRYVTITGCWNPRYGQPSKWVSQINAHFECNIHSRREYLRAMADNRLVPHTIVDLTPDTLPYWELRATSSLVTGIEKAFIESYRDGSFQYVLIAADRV

SMILES: CC(C)=CCC/C(C)=C/COP(=O)(O)OP(=O)(O)O [GPP, geranyl diphosphate]
- X-ray crystal structure, 2.05 Å [1]: sufficient electron density to model GPP is observed only in monomers A, D, H, and J
- KM ([2]; 60 µM SAM): Kinetic parameters (Vmax and KM) were obtained for GPP and SAM

SMILES: CC(C)=CCC/C(C)=C/CSP(=O)(O)OP(=O)(O)O [GSPP, geranyl-S-thiolodiphosphate]
- X-ray crystal structure, 1.82 Å [3]: GSPP is bound with full occupancy in all monomers

SMILES: C[S+](CC[C@H](N)C(=O)O)C[C@H]1O[C@@H](n2cnc3c(N)ncnc32)[C@H](O)[C@@H]1O (stereo partly drawn) [SAM, S-adenosyl-L-methionine]
- KM ([2]; 60 µM GPP, labelled compound): Kinetic parameters (Vmax and KM) were obtained for GPP and SAM
